Key:
[1] = Conversion of isomer F1 (12b) to F2 (12a) in chloroform, followed by 13C-NMR; format: physicochemical; settings: 14 days at room temperature
Source text: FIG. 7A illustrates the aliphatic region of the ^13C-NMR spectrum of the F1 isomer (12b) in CDCl3 (bottom) and the aliphatic region of the ^13C-NMR spectrum of the F2 isomer (12a) in CDCl3 (top). FIG. 7B illustrates the aliphatic region of the ^13C-NMR spectra of the F1 isomer (12b) in CDCl3 at 0 days, 2 days, 6 days, 9 days and 14 days, showing that the F1 isomer (12b) slowly converts to the F2 isomer (12a).
After 14 days at room temperature, the conversion 12b (F1) to 12a (F2) was approximately 50% complete.

[2] = Optimisation of Cu-64 radiolabeling of 13a and 13b to >95% radiochemical yield; settings: depends on CB-TE2A BFC concentration
Source text: As used herein, the terms “degree of complexation” and “percent complexation” are used interchangeably and are defined to mean the percentage of the ion that is successfully complexed with the bifunctional chelate. Here percent complexation is expressed as radiochemical yield, which is the yield of radiolabeled complex expressed as a fraction of the radioactivity originally present. The value of radiochemical yield obtained when making the ion complexes of the present reaction can be greater than 90% or greater than 95%, as measured by reverse phase chromatography (HPLC).
The conditions required to radiolabel 13a and 13b with Cu-64 in >95% radiochemical yield were optimized for pH, temperature and reaction time (Table 1). The exact same radioisotope lot, buffer solutions, and conditions were used for the reaction and the analysis of both 13a and 13b.
Cu-64 radiolabeled 13a and 13b are distinct species with different retention times by HPLC. The analysis was conducted with a Phenomenex hydrosynergy RPC18 column (4.6×150 mm) using a gradient of 98% trifluoracetic acid in water (0.01% v/v) 2% acetonitrile to 50% trifluoracetic acid in water (0.01% v/v) 50% acetonitrile over 30 min at 1 mL/min.

| SMILES | Conversion 12b (F1) to 12a (F2) [1] | Reaction time [2] |
| --- | --- | --- |
| CCOC(=O)CN1CCCN2CCN(CCCN(C(CCc3ccc([N+](=O)[O-])cc3)C(=O)OC)CC2)CC1 (stereo not drawn) [12b, methyl 2-(11-(2-ethoxy-2-oxoethyl)-1,4,8,11-tetraazabicyclo[6.6.2]hexadecan-4-yl)-4-(4-nitrophenyl)butanoate] | approximately 50% | – |
| O=C(O)CN1CCCN2CCN(CCCN(C(CCc3ccc([N+](=O)[O-])cc3)C(=O)O)CC2)CC1 (stereo not drawn) [13a] | – | 10-30 minutes depending on |
| O=C(O)CN1CCCN2CCN(CCCN(C(CCc3ccc([N+](=O)[O-])cc3)C(=O)O)CC2)CC1 (stereo not drawn) [13b] | – | 60 min |
